Data: patent US6737383B1, “Herbicidal oxadiazolidines” (priority 1999, dated 2004)

What was measured:
wheat = assay: Test B pre/postemergence wheat; assay type: in vivo, Triticum aestivum
Procedure, shortened: (§1)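 Herbicidal effect was estimated by eye on a ten-point control scale after plants spent twelve to sixteen days in a greenhouse following soil or foliar treatment. Foliar sprays targeted plants at one to four leaves; all doses were formulated in a non-phytotoxic solvent with surfactant.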

bedstraw = assay: Test B pre/postemergence bedstraw; assay type: in vivo, Galium aparine
Procedure, shortened: as §1

duck salad = assay: Test B flood test duck salad; assay type: in vivo, Heteranthera limosa
Procedure, shortened: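 Each value is a visual injury score relative to controls, with 10 meaning complete control and 0 no effect. Evaluation took place twelve to sixteen days after the 2-leaf-stage plants were treated and kept in the greenhouse.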

purple nutsedge = assay: Test B pre/postemergence purple nutsedge; assay type: in vivo, Cyperus rotundus
Procedure, shortened: as §1

crabgrass = assay: Test B pre/postemergence crabgrass; assay type: in vivo, Digitaria sanguinalis
Procedure, shortened: as §1

velvetleaf = assay: Test B pre/postemergence velvetleaf; assay type: in vivo, Abutilon theophrasti
Procedure, shortened: as §1

soybean = assay: Test B pre/postemergence soybean; assay type: in vivo, Glycine max
Procedure, shortened: as §1

pigweed = assay: Test B pre/postemergence pigweed; assay type: in vivo, Amaranthus retroflexus
Procedure, shortened: as §1

morningglory = assay: Test B pre/postemergence morningglory; assay type: in vivo, Ipomoea hederacea
Procedure, shortened: as §1

rape = assay: Test B pre/postemergence rape; assay type: in vivo, Brassica napus
Procedure, shortened: as §1

giant foxtail = assay: Test B pre/postemergence giant foxtail; assay type: in vivo, Setaria faberii
Procedure, shortened: as §1

cocklebur = assay: Test B pre/postemergence cocklebur; assay type: in vivo, Xanthium strumarium
Procedure, shortened: as §1

surinam grass = assay: Test B pre/postemergence surinam grass; assay type: in vivo, Brachiaria decumbens
Procedure, shortened: as §1

sugar beet = assay: Test B pre/postemergence sugar beet; assay type: in vivo, Beta vulgaris
Procedure, shortened: as §1

corn = assay: Test B pre/postemergence corn; assay type: in vivo, Zea mays
Procedure, shortened: as §1

[1] = Preemergence, Rate 62 g/ha, scale of 0 to 10 where 0 is no effect and 10 is complete control
[2] = Preemergence, Rate 250 g/ha, scale 0 to 10, 0 is no effect, 10 is complete control
[3] = Preemergence, Rate 500 g/ha, scale of 0 to 10 where 0 is no effect and 10 is complete control
[4] = Rate 62 g/ha, Postemergence, scale of 0 to 10 where 0 is no effect and 10 is complete control
[5] = Rate 125 g/ha, Postemergence, scale 0 to 10
[6] = Preemergence, Rate 125 g/ha, 0 is no effect, 10 is complete control
[7] = Rate 500 g/ha, Postemergence, scale 0 to 10

Structure (SMILES): CSc1ccc(N(C(=O)n2oc(=O)n(-c3ccccc3C)c2=O)C(C)C)cc1 [Compound 205]
- Wheat plant response rating (wheat; [1]): 0
- Wheat plant response rating (wheat; [2]): 0
- Plant response rating, Wheat (wheat; [3]): 0
- Wheat plant response rating (wheat; [4]): 0
- Wheat plant response rating (wheat; [5]): 0
- Plant response rating (0 to 10; 0 is no effect, 10 is complete control), Wheat (wheat; Rate 250 g/ha, Postemergence): 0
- Bedstraw plant response rating (bedstraw; [1]): 0
- Bedstraw plant response rating (0 to 10 scale) (bedstraw; [6]): 0
- Bedstraw plant response rating (bedstraw; [2]): 0
- Plant response rating, Bedstraw (bedstraw; [3]): 0
- Bedstraw plant response rating (bedstraw; [4]): 0
- Bedstraw plant response rating (bedstraw; [5]): 0
- Plant response rating (0 to 10; 0 is no effect, 10 is complete control), Bedstraw (bedstraw; Rate 250 g/ha, Postemergence): 0
- Bedstraw plant response rating (bedstraw; [7]): 0
- Ducksalad plant response rating (duck salad; Rate 62 g/ha, headed Pre-emergence (flood test species), scale 0 to 10 (0 no effect, 10 complete control)): 0
- Ducksalad plant response rating (duck salad; Rate 125 g/ha, Pre-emergence, flood test species, scale 0 to 10 where 0 is no effect and 10 is complete control): 0
- Ducksalad plant response rating (duck salad; Rate 250 g/ha, Pre-emergence, flood-test species, scale 0 to 10, 0 is no effect, 10 is complete control): 0
- Plant response rating, Ducksalad (duck salad; Rate 500 g/ha, headed Pre-emergence (flood test species), scale 0 to 10 (0 no effect, 10 complete control)): 0
- Nutsedge plant response rating (purple nutsedge; [2]): 0
- Nutsedge plant response rating (purple nutsedge; [5]): 0
- Nutsedge plant response rating (purple nutsedge; [7]): 0
- Crabgrass plant response rating (crabgrass; [1]): 0
- Crabgrass plant response rating (0 to 10 scale) (crabgrass; [6]): 0
- Crabgrass plant response rating (crabgrass; [2]): 1
- Plant response rating, Crabgrass (crabgrass; [3]): 8
- Crabgrass plant response rating (crabgrass; [4]): 0
- Crabgrass plant response rating (crabgrass; [5]): 0
- Plant response rating (0 to 10; 0 is no effect, 10 is complete control), Crabgrass (crabgrass; Rate 250 g/ha, Postemergence): 1
- Crabgrass plant response rating (crabgrass; [7]): 1
- Velvetleaf plant response rating (velvetleaf; [1]): 0
- Velvetleaf plant response rating (velvetleaf; [2]): 0
- Plant response rating, Velvetleaf (velvetleaf; [3]): 0
- Velvetleaf plant response rating (velvetleaf; [4]): 0
- Velvetleaf plant response rating (velvetleaf; [5]): 0
- Plant response rating (0 to 10; 0 is no effect, 10 is complete control), Velvetleaf (velvetleaf; Rate 250 g/ha, Postemergence): 0
- Soybean plant response rating (soybean; [1]): 0
- Soybean plant response rating (0 to 10 scale) (soybean; [6]): 0
- Soybean plant response rating (soybean; [2]): 0
- Plant response rating, Soybean (soybean; [3]): 0
- Soybean plant response rating (soybean; [4]): 0
- Soybean plant response rating (soybean; [5]): 1
- Plant response rating (0 to 10; 0 is no effect, 10 is complete control), Soybean (soybean; Rate 250 g/ha, Postemergence): 2
- Soybean plant response rating (soybean; [7]): 2
- Redroot pigweed plant response rating (pigweed; [1]): 0
- Redroot pigweed plant response rating (0 to 10 scale) (pigweed; [6]): 0
- Redroot pigweed plant response rating (pigweed; [2]): 0
- Plant response rating, Redroot pigweed (pigweed; [3]): 0
- Redroot pigweed plant response rating (pigweed; [4]): 0
- Redroot pigweed plant response rating (pigweed; [5]): 0
- Plant response rating (0 to 10; 0 is no effect, 10 is complete control), Redroot pigweed (pigweed; Rate 250 g/ha, Postemergence): 0
- Redroot pigweed plant response rating (pigweed; [7]): 0
- Morningglory plant response rating (morningglory; [1]): 0
- Morningglory plant response rating (0 to 10 scale) (morningglory; [6]): 0
- Morningglory plant response rating (morningglory; [2]): 0
- Plant response rating, Morningglory (morningglory; [3]): 0
- Morningglory plant response rating (morningglory; [4]): 0
- Morningglory plant response rating (morningglory; [5]): 0
- Plant response rating (0 to 10; 0 is no effect, 10 is complete control), Morningglory (morningglory; Rate 250 g/ha, Postemergence): 1
- Morningglory plant response rating (morningglory; [7]): 2
- Rape plant response rating (rape; [1]): 0
- Rape plant response rating (0 to 10 scale) (rape; [6]): 0
- Rape plant response rating (rape; [2]): 0
- Plant response rating, Rape (rape; [3]): 0
- Rape plant response rating (rape; [4]): 0
- Rape plant response rating (rape; [5]): 0
- Plant response rating (0 to 10; 0 is no effect, 10 is complete control), Rape (rape; Rate 250 g/ha, Postemergence): 0
- Rape plant response rating (rape; [7]): 0
- Giant foxtail plant response rating (giant foxtail; [1]): 0
- Giant foxtail plant response rating (0 to 10 scale) (giant foxtail; [6]): 0
- Giant foxtail plant response rating (giant foxtail; [2]): 0
- Plant response rating, Giant foxtail (giant foxtail; [3]): 3
- Giant foxtail plant response rating (giant foxtail; [4]): 0
- Giant foxtail plant response rating (giant foxtail; [5]): 0
- Plant response rating (0 to 10; 0 is no effect, 10 is complete control), Giant foxtail (giant foxtail; Rate 250 g/ha, Postemergence): 0
- Giant foxtail plant response rating (giant foxtail; [7]): 0
- Cocklebur plant response rating (cocklebur; [1]): 0
- Cocklebur plant response rating (0 to 10 scale) (cocklebur; [6]): 0
- Cocklebur plant response rating (cocklebur; [2]): 0
- Plant response rating, Cocklebur (cocklebur; [3]): 0
- Cocklebur plant response rating (cocklebur; [4]): 0
- Cocklebur plant response rating (cocklebur; [5]): 1
- Plant response rating (0 to 10; 0 is no effect, 10 is complete control), Cocklebur (cocklebur; Rate 250 g/ha, Postemergence): 1
- Cocklebur plant response rating (cocklebur; [7]): 2
- B. signalgrass plant response rating (surinam grass; [1]): 0
- B. signalgrass plant response rating (0 to 10 scale) (surinam grass; [6]): 0
- B. signalgrass plant response rating (surinam grass; [2]): 0
- Plant response rating, B. signalgrass (surinam grass; [3]): 0
- B. signalgrass plant response rating (surinam grass; [4]): 0
- B. signalgrass plant response rating (surinam grass; Rate 125 g/ha, Postemergence, scale 0 (no effect) to 10 (complete control)): 0
- Plant response rating, B. signalgrass (surinam grass; Rate 250 g/ha, Postemergence, scale 0 to 10, 0 is no effect, 10 is complete control): 0
- B. signalgrass plant response rating (surinam grass; Rate 500 g/ha, Postemergence, scale 0 to 10, 0 no effect, 10 complete control): 0
- Sugarbeets plant response rating (sugar beet; [1]): 0
- Sugarbeets plant response rating (0 to 10 scale) (sugar beet; [6]): 0
- Sugarbeets plant response rating (sugar beet; [2]): 0
- Plant response rating, Sugarbeets (sugar beet; [3]): 0
- Sugarbeets plant response rating (sugar beet; [4]): 0
- Sugarbeets plant response rating (sugar beet; [5]): 0
- Plant response rating (0 to 10; 0 is no effect, 10 is complete control), Sugarbeets (sugar beet; Rate 250 g/ha, Postemergence): 0
- Sugarbeets plant response rating (sugar beet; [7]): 0
- Corn plant response rating (corn; [1]): 0
- Corn plant response rating (0 to 10 scale) (corn; [6]): 0
- Corn plant response rating (corn; [2]): 0
- Plant response rating, Corn (corn; [3]): 0
- Corn plant response rating (corn; [4]): 0
- Corn plant response rating (corn; [5]): 0
- Plant response rating (0 to 10; 0 is no effect, 10 is complete control), Corn (corn; Rate 250 g/ha, Postemergence): 0
- Corn plant response rating (corn; [7]): 0
